Key:
[1] = Antiproliferative activity against human CRL-2351 cells incubated for 5 days by SRB assay; assay type: functional, cell-based; settings: CRL-2351, 120 h
[2] = target: Interferon-induced, double-stranded RNA-activated protein kinase (Homo sapiens) (UniProt P19525); test: Induction of eIF2alpha phosphorylation (unknown origin) assessed as fold increase in ATF-4 stimulation at 20 uM by dual luciferase reporter assay; settings: filed as activator
[3] = Antiproliferative activity against human CRL-2813 cells incubated for 5 days by SRB assay; assay type: functional, cell-based; settings: CRL2813, 120 h
[4] = target: Interferon-induced, double-stranded RNA-activated protein kinase (Homo sapiens) (UniProt P19525); test: Induction of eIF2alpha phosphorylation (unknown origin) assessed as fold increase in ATF-4 stimulation at 40 uM by dual luciferase reporter assay; settings: filed as activator
[5] = target: Interferon-induced, double-stranded RNA-activated protein kinase (Homo sapiens) (UniProt P19525); test: Induction of eIF2alpha phosphorylation (unknown origin) assessed as fold increase in ATF-4 stimulation at 10 uM by dual luciferase reporter assay
[6] = target: Interferon-induced, double-stranded RNA-activated protein kinase (Homo sapiens) (UniProt P19525); test: Induction of eIF2alpha phosphorylation (unknown origin) assessed as fold increase in ATF-4 stimulation at 80 uM by dual luciferase reporter assay; settings: filed as activator
[7] = target: Interferon-induced, double-stranded RNA-activated protein kinase (Homo sapiens) (UniProt P19525); test: Induction of eIF2alpha phosphorylation in human CRL-2813 cells assessed as fold increase in CHOP expression incubated for 6 hrs by RT-PCR analysis; assay type: cell-based; settings: filed as activator, dose 10.0 µM
[8] = target: Interferon-induced, double-stranded RNA-activated protein kinase (Homo sapiens) (UniProt P19525); test: Induction of eIF2alpha phosphorylation (unknown origin) assessed as fold increase in ATF-4 stimulation at 2.5 uM by dual luciferase reporter assay; settings: filed as activator
[9] = target: Interferon-induced, double-stranded RNA-activated protein kinase (Homo sapiens) (UniProt P19525); test: Induction of eIF2alpha phosphorylation (unknown origin) assessed as fold increase in ATF-4 stimulation at 5 uM by dual luciferase reporter assay; settings: filed as activator

Sequence of Interferon-induced, double-stranded RNA-activated protein kinase (Homo sapiens) (P19525 whole entry): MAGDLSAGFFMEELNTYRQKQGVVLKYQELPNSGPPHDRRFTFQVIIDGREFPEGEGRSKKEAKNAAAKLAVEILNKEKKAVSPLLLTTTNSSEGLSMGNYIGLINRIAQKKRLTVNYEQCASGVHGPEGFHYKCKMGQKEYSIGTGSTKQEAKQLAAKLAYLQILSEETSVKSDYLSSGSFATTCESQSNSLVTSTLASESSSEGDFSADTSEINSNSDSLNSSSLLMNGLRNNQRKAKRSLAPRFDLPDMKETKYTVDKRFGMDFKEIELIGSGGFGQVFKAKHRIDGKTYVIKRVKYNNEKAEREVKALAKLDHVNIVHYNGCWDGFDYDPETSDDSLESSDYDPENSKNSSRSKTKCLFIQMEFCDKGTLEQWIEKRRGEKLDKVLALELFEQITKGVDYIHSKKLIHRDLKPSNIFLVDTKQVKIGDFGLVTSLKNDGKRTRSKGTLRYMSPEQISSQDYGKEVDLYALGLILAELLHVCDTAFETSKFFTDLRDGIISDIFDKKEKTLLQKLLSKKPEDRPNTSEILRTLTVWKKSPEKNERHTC

fold change (FC) [4]	Compound	IC50 [1] [nM]	IC50 [3] [nM]	also measured
	CC(C)(C)c1ccc(OCCO)c(C2(c3cc(C(C)(C)C)ccc3OCCO)C(=O)Nc3ccccc32)c1	2700	2900	fold change (FC) [2]: 3.42
	CCN(CC)CCOc1ccc(C(C)(C)C)cc1C1(c2cc(C(C)(C)C)ccc2O)C(=O)Nc2ccccc21 (stereo not drawn)	600	1500	fold change (FC) [2]: 16.7
	CN1CCN(CCOc2ccc(C(C)(C)C)cc2C2(c3cc(C(C)(C)C)ccc3O)C(=O)Nc3ccccc32)CC1 (stereo not drawn)	750	1400	fold change (FC) [2]: 24.6
	CC(C)(C)c1ccc(O)c(C2(c3cc(C(C)(C)C)ccc3OCCN3CCCCC3)C(=O)Nc3ccccc32)c1 (stereo not drawn)	700	3350	fold change (FC) [2]: 4.15
1.21	COCOc1ccc(C(C)(C)C)cc1C1(c2cc(C(C)(C)C)ccc2O)C(=O)Nc2ccccc21 (stereo not drawn)	4200	2200	
	CN1CCN(CCOc2ccc(C(C)(C)C)cc2C2(c3cc(C(C)(C)C)ccc3OCCN3CCN(C)CC3)C(=O)Nc3ccccc32)CC1	200	740	fold change (FC) ([5]; filed as activator): 9.7
9.6	CC(C)(C)c1ccc(O)c(C2(c3cc(C(C)(C)C)ccc3O)C(=O)N(CCBr)c3ccccc32)c1	1500	1400	
	COCCOc1ccc(C(C)(C)C)cc1C1(c2cc(C(C)(C)C)ccc2OCCOC)C(=O)Nc2ccccc21	4600	700	fold change (FC) [6]: 1.58
	CC(C)(C)c1ccc(O)c(C2(c3cc(C(C)(C)C)ccc3OCCN3CCNCC3)C(=O)Nc3ccccc32)c1 (stereo not drawn)	900	1500	fold change (FC) [2]: 15.1
	CC(C)(C)c1ccc(OCCN2CCCCC2)c(C2(c3cc(C(C)(C)C)ccc3OCCN3CCCCC3)C(=O)Nc3ccccc32)c1	2140	11600	fold change (FC) [6]: 5.91
10.8	CC(C)(C)c1ccc(O)c(C2(c3cc(C(C)(C)C)ccc3OCCO)C(=O)Nc3ccccc32)c1 (stereo not drawn)	8800	2900	
	CC(C)(C)c1ccc(O)c(C2(c3cc(C(C)(C)C)ccc3O)C(=O)Nc3ccccc32)c1	2800	10200	fold change (FC) [7]: 3; fold change (FC) ([5]; filed as activator): 5.2
	CN(C)CCN1C(=O)C(c2cc(C(C)(C)C)ccc2O)(c2cc(C(C)(C)C)ccc2O)c2ccccc21	2700	> 20000	fold change (FC) [7]: 3; fold change (FC) [2]: 7.12
5.69	CC(C)(C)c1ccc(O)c(C2(c3cc(C(C)(C)C)ccc3OCCN3CCOCC3)C(=O)Nc3ccccc32)c1 (stereo not drawn)	≤ 540	1650	fold change (FC) [7]: 3
	CN1CCN(CCOc2ccc(C(C)(C)C)cc2C2(c3cc(C(C)(C)C)ccc3OCCN3CCN(C)CC3)C(=O)N(CCN3CCN(C)CC3)c3ccccc32)CC1	600		fold change (FC) ([5]; filed as activator): 6.73
8.59	CC(=O)OCCOc1ccc(C(C)(C)C)cc1C1(c2cc(C(C)(C)C)ccc2O)C(=O)Nc2ccccc21 (stereo not drawn)	2700	1600	
1.34	CN(C)CCOc1ccc(C(C)(C)C)cc1C1(c2cc(C(C)(C)C)ccc2OCCN(C)C)C(=O)Nc2ccccc21	10200	12500	
	CCN(CC)CCOc1ccc(C(C)(C)C)cc1C1(c2cc(C(C)(C)C)ccc2OCCN(CC)CC)C(=O)Nc2ccccc21	≤ 540	1000	fold change (FC) [5]: < 0.54

fold change (FC) [4]	Compound	IC50 [1] [nM]	IC50 [3] [nM]	also measured
9.09	CC(C)(C)c1ccc(O)c(C2(c3cc(C(C)(C)C)ccc3OCCN3CCCC3)C(=O)N(CCN3CCCC3)c3ccccc32)c1 (stereo not drawn)	3600	7250	
	CN(C)CCN1C(=O)C(c2cc(C(C)(C)C)ccc2O)(c2cc(C(C)(C)C)ccc2OCCN2CCCC2)c2ccccc21 (stereo not drawn)	≤ 540	≤ 540	fold change (FC) ([5]; filed as activator): 9.08
	CCN(CC)CCOc1ccc(C(C)(C)C)cc1C1(c2cc(C(C)(C)C)ccc2OCCN(CC)CC)C(=O)N(CCN(CC)CC)c2ccccc21	≤ 540	720	fold change (FC) [8]: 14.3
	CC(=O)OCCOc1ccc(C(C)(C)C)cc1C1(c2cc(C(C)(C)C)ccc2OCCOC(C)=O)C(=O)Nc2ccccc21	2500	2000	fold change (FC) [6]: 2.07
	CC(C)(C)c1ccc(OCCN2CCOCC2)c(C2(c3cc(C(C)(C)C)ccc3OCCN3CCOCC3)C(=O)Nc3ccccc32)c1	1680	2400	fold change (FC) [7]: 3; fold change (FC) [2]: 4.98
11.4	CC(C)(C)c1ccc(OCCN2CCNCC2)c(C2(c3cc(C(C)(C)C)ccc3OCCN3CCNCC3)C(=O)Nc3ccccc32)c1	800	1500	
	CN(C)CCN1C(=O)C(c2cc(C(C)(C)C)ccc2OCCN2CCCC2)(c2cc(C(C)(C)C)ccc2OCCN2CCCC2)c2ccccc21	540	800	fold change (FC) [8]: 11.8
	CN(C)CCOc1ccc(C(C)(C)C)cc1C1(c2cc(C(C)(C)C)ccc2O)C(=O)N(CCN(C)C)c2ccccc21 (stereo not drawn)	300	900	fold change (FC) ([5]; filed as activator): 14.3
	CC(C)(C)c1ccc(O)c(C2(c3cc(C(C)(C)C)ccc3OCCBr)C(=O)N(CCBr)c3ccccc32)c1 (stereo not drawn)	4600	700	fold change (FC) [6]: 1.99
10.8	CC(C)(C)c1ccc(OCCN2CCOCC2)c(C2(c3cc(C(C)(C)C)ccc3OCCN3CCOCC3)C(=O)N(CCN3CCOCC3)c3ccccc32)c1	2300	2700	fold change (FC) [7]: 3
4.3	CC(C)(C)c1ccc(O)c(C2(c3cc(C(C)(C)C)ccc3O)C(=O)N(CCN3CCOCC3)c3ccccc32)c1	2200	1600	fold change (FC) [7]: 3
	CN(C)CCOc1ccc(C(C)(C)C)cc1C1(c2cc(C(C)(C)C)ccc2O)C(=O)Nc2ccccc21 (stereo not drawn)	1900	1200	fold change (FC) [2]: 4.65
	CC(C)(C)c1ccc(O)c(C2(c3cc(C(C)(C)C)ccc3OCCN3CCCC3)C(=O)Nc3ccccc32)c1 (stereo not drawn)	1000	10700	fold change (FC) ([5]; filed as activator): 2.73
	CC(C)(C)c1ccc(O)c(C2(c3cc(C(C)(C)C)ccc3OCCN3CCOCC3)C(=O)N(CCN3CCOCC3)c3ccccc32)c1 (stereo not drawn)	3600	2000	fold change (FC) [6]: 31.9
	CC(C)(C)c1ccc(OCCN2CCCC2)c(C2(c3cc(C(C)(C)C)ccc3OCCN3CCCC3)C(=O)Nc3ccccc32)c1	650	800	fold change (FC) [9]: 13.9
12.9	CC(C)(C)c1ccc(O)c(C2(c3cc(C(C)(C)C)ccc3OCCBr)C(=O)Nc3ccccc32)c1 (stereo not drawn)	2400	1000	
	CN(C)CCOc1ccc(C(C)(C)C)cc1C1(c2cc(C(C)(C)C)ccc2OCCN(C)C)C(=O)N(CCN(C)C)c2ccccc21	500	700	fold change (FC) [8]: 16.8
	CC(C)(C)c1ccc(OCCN2CCCC2)c(C2(c3cc(C(C)(C)C)ccc3OCCN3CCCC3)C(=O)N(CCN3CCCC3)c3ccccc32)c1	550	1470	fold change (FC) [8]: 12.1
